From patent US20240327417A1, “HETEROCYCLIC COMPOUNDS” (BeiGene Switzerland GmbH, priority 2021, published 2024) come the findings set out here.

The target in assay [1] is T1, Full length DGKα (D21-10BG, SignalChem) (Homo sapiens, UniProt P23743).
T1 construct: Full length DGKα (D21-10BG, SignalChem); purchased SignalChem D21-10BG
Nature of the assay: Biochemical DGK IC50 assay (ADP-Glo, lipid micelle substrate), DGKα. To be noted: 7.5 nM enzyme, 140 μM ATP, 80 μM DAG, 1 hour preincubation, 1 hour reaction, room temperature, read-out: IC50s for DGKα. The protocol: (§1) Enzymatic reactions of DGKζ, DGKα and DGKδ were performed using ADP-Glo assay with lipid micelle substrate. […] Full length DGKα (D21-10BG, SignalChem) and full length DGKδ (D23-10G, SignalChem) were purchased. Lipid micelle was prepared by dissolving DAG (Sigma, 317505-10MG) and PS (Sigma, P7769-100MG) with chloroform which was firtherly removed by rotary evaporation. The obtained residue was resuspended in buffer containing 25 mM HEPES pH 7.0, 0.5 mM EDTA and 160 mM Octyl β-D glucopyranoside by vigorous mixing and ultrasonic (IID, Scientz).
(§2) The inhibition activities testing for the compound disclosed herein were carried out at room temperature in assay buffer containing 50 mM HEPES, 10 mM MgCl2, 0.01% BSA, 0.1 mM Na3VO4, 0.005% Tween-20 and 0.01 mM CaCl2. Compounds in DMSO were dispensed into wells of a black 384 well plate (Corning 4514) using D300e digital dispenser (Tecan). The ranges of compounds final concentration were 1.55˜10000 nM or 23.3˜150000 nM. 3 μL 2× enzyme solution was added to wells. […] After 1 hour reaction, 5 μL ADP-Glo reagent (Promga V9101) was added and incubated for 40 minutes. 10 μL Kinase Detection reagent was added and incubated for 30 minutes. Luminescence was measured on a microplate reader (PHERAstar FSX, BMG labtech). The IC50s are calculated based on inhibition of enzyme activity in the presence of increasing concentrations of compounds.
Background: ADP-Glo turns the ADP formed in a reaction into a luminescent signal.

In assay [2] the target is T2, Full length DGKζ (in-house protein M1-V929) (Homo sapiens, UniProt Q13574).
T2 construct: His (N); TEV cleavage site (N); made in house; host or cells: Sf9 insect cells (baculovirus, Bac-to-Bac)
Nature of the assay: Biochemical DGK IC50 assay (ADP-Glo, lipid micelle substrate), DGKζ. To be noted: 0.5 nM enzyme, 140 μM ATP, 80 μM DAG, 1 hour preincubation, 1 hour reaction, room temperature, read-out: IC50s for DGKζ. The procedure: as §1, §2
Human His-TEV-DGK-zeta-pFastBac1 and human baculovirus samples was generated using the Bac-to-Bac baculovirus expression system (Invitrogen) according to the manufacturer's protocol. The DNA used for expression of DGK-zeta, have SEQ ID Nos: 1. Baculovirus amplification was achieved using infected SF9 cells at 1:2000 virus/cells ratios, and grown for 96 hours at 27° C. post-transfected.
The expression scaled up for each protein was carried out in the […] from CORNING. 4 L of 3×10^6 cells/mL Sf9 cells (Expression System, Invitrogen) grown in SF900™ II SFM insect medium (Expression System) was infected with virus stock at 1:200 virus/cells ratio, and grown for 48 hours at 27° C. post-transfection. The infected cell culture was harvested by centrifugation at 6000 rpm for 15 min 4° C. in a SORVALL LYNX6000 centrifuge. The cell pellets were stored at −80° C.
Full length human DGKζ produced as described above, was purified from Sf9 baculovirus-infected insect cell paste. The cells were lysed using sonication method, and the lysates were clarified by centrifugation.

T1 sequence (P23743 whole entry): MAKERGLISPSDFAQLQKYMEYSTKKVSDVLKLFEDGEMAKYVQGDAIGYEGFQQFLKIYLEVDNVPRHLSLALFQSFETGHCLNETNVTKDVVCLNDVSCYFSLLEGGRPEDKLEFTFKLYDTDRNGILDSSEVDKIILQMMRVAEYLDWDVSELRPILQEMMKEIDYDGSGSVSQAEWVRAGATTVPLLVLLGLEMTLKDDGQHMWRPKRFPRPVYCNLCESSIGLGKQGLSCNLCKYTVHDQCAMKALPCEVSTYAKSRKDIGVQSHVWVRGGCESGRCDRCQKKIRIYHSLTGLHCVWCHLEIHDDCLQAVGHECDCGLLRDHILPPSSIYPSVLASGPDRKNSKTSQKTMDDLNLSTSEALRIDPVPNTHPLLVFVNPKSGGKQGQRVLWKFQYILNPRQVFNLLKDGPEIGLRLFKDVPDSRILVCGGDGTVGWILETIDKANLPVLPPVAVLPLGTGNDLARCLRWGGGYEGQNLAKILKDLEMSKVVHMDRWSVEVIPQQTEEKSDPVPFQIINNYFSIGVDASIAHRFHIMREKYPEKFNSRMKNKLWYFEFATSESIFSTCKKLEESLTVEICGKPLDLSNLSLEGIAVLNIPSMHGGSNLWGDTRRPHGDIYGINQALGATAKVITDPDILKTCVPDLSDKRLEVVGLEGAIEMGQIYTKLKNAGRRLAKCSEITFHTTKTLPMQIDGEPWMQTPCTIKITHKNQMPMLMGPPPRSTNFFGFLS
T2 sequence (Q13574 1-929 isoform Q13574-4): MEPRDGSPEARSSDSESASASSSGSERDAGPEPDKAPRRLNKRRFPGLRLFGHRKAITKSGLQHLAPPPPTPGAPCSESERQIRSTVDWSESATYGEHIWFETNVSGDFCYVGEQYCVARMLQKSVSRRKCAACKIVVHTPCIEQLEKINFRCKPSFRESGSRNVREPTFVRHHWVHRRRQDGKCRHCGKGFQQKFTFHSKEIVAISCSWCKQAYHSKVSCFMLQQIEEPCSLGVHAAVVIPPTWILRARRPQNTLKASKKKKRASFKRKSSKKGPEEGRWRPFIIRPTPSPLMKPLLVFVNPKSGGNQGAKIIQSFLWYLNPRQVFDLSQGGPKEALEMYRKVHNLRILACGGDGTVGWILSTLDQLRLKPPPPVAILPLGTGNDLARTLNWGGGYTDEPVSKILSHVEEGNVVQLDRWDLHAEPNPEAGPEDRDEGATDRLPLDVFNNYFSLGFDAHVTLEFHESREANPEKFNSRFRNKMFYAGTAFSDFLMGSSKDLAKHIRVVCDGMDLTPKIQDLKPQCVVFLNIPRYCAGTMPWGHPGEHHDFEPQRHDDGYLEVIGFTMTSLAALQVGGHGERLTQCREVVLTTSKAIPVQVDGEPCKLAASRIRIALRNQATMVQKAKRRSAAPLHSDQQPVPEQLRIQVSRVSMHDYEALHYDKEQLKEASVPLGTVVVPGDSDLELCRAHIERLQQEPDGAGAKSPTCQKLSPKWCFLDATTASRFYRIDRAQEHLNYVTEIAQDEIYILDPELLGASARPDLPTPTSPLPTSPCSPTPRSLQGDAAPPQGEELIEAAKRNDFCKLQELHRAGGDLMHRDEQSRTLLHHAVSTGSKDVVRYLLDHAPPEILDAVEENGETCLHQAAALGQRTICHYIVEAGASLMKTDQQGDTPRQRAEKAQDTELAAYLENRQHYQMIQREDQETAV

Turning to `CC[C@H]1CN(C(C)c2ccc(C3CC3)nc2)[C@H](CC)CN1c1c(F)c(=O)n(C)n2cc(CC#N)nc12` (single isomer, unassigned) [Compound A73a], the IC50 amounted to 177 nM in assay [1] and 77 nM in assay [2].
For `CC#CCc1cn2c(n1)c(N1C[C@@H](CC)N(C(C)c3ccc4nc(C)sc4c3F)C[C@@H]1CC)cc(=O)n2C` (single isomer, unassigned) [Compound A116a] the same measures were 118 nM and 132 nM.
Consider `CC[C@H]1CN(C(C)c2cc3sc(C)nc3cc2F)[C@H](CC)CN1c1cc(=O)n(C)n2cc(CC#N)nc12` (single isomer, unassigned) [Compound A61a], for which the IC50 in assay [1] amounted to 400 nM; in assay [2] it was 126 nM.
The matching figures for `CC[C@H]1CN(C(C)c2ccc(C(C)(F)F)nc2)[C@H](CC)CN1c1cc(=O)n(C)n2cc(CC#N)nc12` (single isomer, unassigned) [Compound A90b]: 386 nM and 802 nM.
The matching figures for `CC[C@H]1CN(C(C)c2ccc3scnc3c2F)[C@H](CC)CN1c1cc(=O)n(C)n2cc(CC#N)nc12` (single isomer, unassigned) [Compound A66b]: 1640 nM and 1440 nM.
For `CCC(c1ccc(C(F)(F)F)cc1)N1C[C@H](CC)N(c2cc(=O)n(C)n3cc(CC#N)nc23)C[C@H]1CC` (single isomer, unassigned) [Compound A77a] the same measures were 102 nM and 255 nM.
As to `CC[C@H]1CN(C(C)c2cc3scnc3cc2F)[C@H](CC)CN1c1cc(=O)n(C)n2cc(CC#N)nc12` (single isomer, unassigned) [Compound A59a], the values for the IC50 in assay [1] and in assay [2] were 54 nM and 26 nM, respectively.
The matching figures for `CC[C@H]1CN(C(C)c2ccc3ncsc3n2)[C@H](CC)CN1c1cc(=O)n(C)n2cc(CC#N)nc12` (single isomer, unassigned) [Compound A57b]: 172 nM and 357 nM.
Turning to `CC[C@H]1CN(C(C)c2ccc(C3CC3)nc2)[C@H](CC)CN1c1c(F)c(=O)n(C)n2cc(CC#N)nc12` (single isomer, unassigned) [Compound A73b], the values for the IC50 in assay [1] and in assay [2] were 832 nM and 302 nM, respectively.
The matching figures for `CC[C@H]1CN(C(C)c2ccc(C(C)(C)F)nc2)[C@H](CC)CN1c1cc(=O)n(C)n2cc(CC#N)nc12` (single isomer, unassigned) [Compound A46a]: 122 nM and 6.4 nM.
The matching figures for `CC[C@H]1CN(C(C)c2ccc3nc(C)sc3c2F)[C@H](C)CN1c1cc(=O)n(C)n2cc(CC#N)nc12` (single isomer, unassigned) [Compound A119b]: 340 nM and 51 nM.
The matching figures for `CC[C@H]1CN(C(C)c2ccc3scnc3c2F)[C@H](CC)CN1c1cc(=O)n(C)n2cc(CC#N)nc12` (single isomer, unassigned) [Compound A66a]: 105 nM and 22 nM.
For the compound `CCc1nc2ccc(C(C)N3C[C@H](CC)N(c4cc(=O)n(C)n5cc(CC#N)nc45)C[C@H]3CC)cc2s1` (single isomer, unassigned) [Compound A100b], the IC50 in assay [1] stood at 1060 nM; in assay [2], 911 nM.
Take `CC[C@H]1CN(C(C)c2ccc3nc(C)sc3n2)[C@H](CC)CN1c1cc(=O)n(C)n2cc(CC#N)nc12` (single isomer, unassigned) [Compound A58b]: the IC50 in assay [1] was determined as 13.3 nM; in assay [2], 7.3 nM.
The matching figures for `CC[C@H]1CN(C(C)c2ccc(C(C)(F)F)nc2)[C@H](CC)CN1c1cc(=O)n(C)n2cc(CC#N)nc12` (single isomer, unassigned) [Compound A90a]: 121 nM and 25 nM.
For `CC[C@@H]1CN(c2cc(=O)n(C)n3cc(CC#N)nc23)[C@@H](C)CN1C(C)c1ccc2nc(C)sc2c1F` (single isomer, unassigned) [Compound A63a] the same measures were 683 nM and 6 nM.
For `CC(c1ccc2c(c1)OCO2)N1C[C@H](C)N(c2cc(=O)n(C)n3cc(CC#N)nc23)C[C@H]1C` (stereo partly drawn) [Compound A29, 2-(8-((2S,5R)-4-(1-(benzo[d][1,3]dioxol-5-yl)ethyl)-2,5-dimethylpiperazin-1-yl)-5-methyl-6-oxo-5,6-dihydroimidazo[1,2-b]pyridazin-2-yl)acetonitrile] the same measures were 296 nM and 474 nM.
For the compound `CC[C@H]1CN(C(C)c2ccc(C(C)C)nc2)[C@H](CC)CN1c1cc(=O)n(C)n2cc(CC#N)nc12` (single isomer, unassigned) [Compound A38a], the IC50 in assay [1] is 43 nM; in assay [2], 21 nM.
`CC(c1ccc2c(c1)OC(C)(C)CO2)N1C[C@H](C)N(c2c(F)c(=O)n(C)n3cc(CC#N)nc23)C[C@H]1C` (single isomer, unassigned) [Compound A26b]: the IC50 in assay [1] was determined as 2110 nM; in assay [2], 2140 nM.
The matching figures for `CC[C@H]1CN(C(C)c2ccc3c(c2)OCO3)[C@H](CC)CN1c1cc(=O)n(C)n2cc(CC#N)nc12` (stereo partly drawn) [Compound A71, 2-(8-((2S,5R)-4-(1-(benzo[d][1,3]dioxol-5-yl)ethyl)-2,5-diethylpiperazin-1-yl)-5-methyl-6-oxo-5,6-dihydroimidazo[1,2-b]pyridazin-2-yl)acetonitrile]: 66 nM and 61 nM.
The matching figures for `CC(c1ccc2ncc(Cl)nc2c1)N1C[C@H](C)N(c2cc(=O)n(C)n3cc(CC#N)nc23)C[C@H]1C` (stereo partly drawn) [Compound A21, 2-(8-((2S,5R)-4-(1-(3-chloroquinoxalin-6-yl)ethyl)-2,5-dimethylpiperazin-1-yl)-5-methyl-6-oxo-5,6-dihydroimidazo[1,2-b]pyridazin-2-yl)acetonitrile]: 2710 nM and 27 nM.
For `CC[C@H]1CN(C(C)c2ccc3cc(F)sc3n2)[C@H](CC)CN1c1cc(=O)n(C)n2cc(CC#N)nc12` (single isomer, unassigned) [Compound A105a] the same measures were 195 nM and 706 nM.
`CC#CCc1cn2c(n1)c(N1C[C@@H](CC)N(C(C)c3ccc4nc(C)sc4n3)C[C@@H]1CC)cc(=O)n2C` (single isomer, unassigned) [Compound A115a]: the IC50 in assay [1] was 288 nM; in assay [2], greater than 10000 nM.
The matching figures for `CC#CCc1cn2c(n1)c(N1C[C@@H](CC)N(C(C)c3ccc4nc(C)sc4c3)C[C@@H]1CC)cc(=O)n2C` (single isomer, unassigned) [Compound A68b]: 527 nM and greater than 10000 nM.
For `CC[C@H]1CN(C(C)c2ccc3nc(C)sc3n2)[C@H](CC)CN1c1c(F)c(=O)n(C)n2cc(CC#N)nc12` (single isomer, unassigned) [Compound A82b] the same measures were 233 nM and 1050 nM.
The matching figures for `CC[C@H]1CN(C(C)c2ccc3nc(CC4CC4)sc3n2)[C@H](CC)CN1c1cc(=O)n(C)n2cc(CC#N)nc12` (single isomer, unassigned) [Compound A110b]: 61 nM and 15 nM.
Turning to `CC[C@@H]1CN(c2cc(=O)n(C)n3cc(CC#N)nc23)[C@@H](C)CN1C(C)c1ccc2ncsc2n1` (single isomer, unassigned) [Compound A80a], in assay [2], the IC50 turned out to be 44 nM.
On the same count and under the same terms, the same measure for `CC[C@H]1CN(C(C)c2ccc3ncsc3n2)[C@H](CC)CN1c1c(F)c(=O)n(C)n2cc(CC#N)nc12` (single isomer, unassigned) [Compound A81a]: 1260 nM.
Same read-out and setting: the same measure for `CC[C@@H]1CN(c2cc(=O)n(C)n3cc(CC#N)nc23)[C@@H](C)CN1C(C)c1ccc2ncsc2n1` (single isomer, unassigned) [Compound A80b]: 8160 nM.
The same measure, in the same setting: the same measure for `CC[C@H]1CN(C(C)c2ccc3ncsc3n2)[C@H](CC)CN1c1c(F)c(=O)n(C)n2cc(CC#N)nc12` (single isomer, unassigned) [Compound A81b]: 32 nM.
